From patent US10722514B2 (FLX Bio, Inc., priority 2017, dated 2020)
Structures can show the parent of a compound that is named as a salt. Where two headings read alike, the source gives them in different places.

Biological target: T1, recombinant full-length USP7 (Homo sapiens, UniProt Q93009)
T1 construct: A 25 μl reaction volume containing recombinant full-length USP7 (62 pM)
Assay: USP7-mediated ubiquitin-rhodamine cleavage assay
Assay type: biochemical
Details: recombinant full-length USP7 62 pM, ubiquitin-rhodamine 100 nM, 1 hour reaction at room temperature
In short: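 Compounds are first incubated with 62 pM enzyme for 30 min at room temperature in pH 7.3 HEPES buffer containing TCEP and BSA. Cleavage of 100 nM ubiquitin-rhodamine proceeds for 1 h before an acid quench, and IC50 is derived from fluorescence.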

[1] = 30-minute incubation with compound, read-out: Potency: USP7 IC50
[2] = 30-minute pre-incubation, read-out: Potency (USP7 IC50)

T1 sequence (Q93009 whole entry): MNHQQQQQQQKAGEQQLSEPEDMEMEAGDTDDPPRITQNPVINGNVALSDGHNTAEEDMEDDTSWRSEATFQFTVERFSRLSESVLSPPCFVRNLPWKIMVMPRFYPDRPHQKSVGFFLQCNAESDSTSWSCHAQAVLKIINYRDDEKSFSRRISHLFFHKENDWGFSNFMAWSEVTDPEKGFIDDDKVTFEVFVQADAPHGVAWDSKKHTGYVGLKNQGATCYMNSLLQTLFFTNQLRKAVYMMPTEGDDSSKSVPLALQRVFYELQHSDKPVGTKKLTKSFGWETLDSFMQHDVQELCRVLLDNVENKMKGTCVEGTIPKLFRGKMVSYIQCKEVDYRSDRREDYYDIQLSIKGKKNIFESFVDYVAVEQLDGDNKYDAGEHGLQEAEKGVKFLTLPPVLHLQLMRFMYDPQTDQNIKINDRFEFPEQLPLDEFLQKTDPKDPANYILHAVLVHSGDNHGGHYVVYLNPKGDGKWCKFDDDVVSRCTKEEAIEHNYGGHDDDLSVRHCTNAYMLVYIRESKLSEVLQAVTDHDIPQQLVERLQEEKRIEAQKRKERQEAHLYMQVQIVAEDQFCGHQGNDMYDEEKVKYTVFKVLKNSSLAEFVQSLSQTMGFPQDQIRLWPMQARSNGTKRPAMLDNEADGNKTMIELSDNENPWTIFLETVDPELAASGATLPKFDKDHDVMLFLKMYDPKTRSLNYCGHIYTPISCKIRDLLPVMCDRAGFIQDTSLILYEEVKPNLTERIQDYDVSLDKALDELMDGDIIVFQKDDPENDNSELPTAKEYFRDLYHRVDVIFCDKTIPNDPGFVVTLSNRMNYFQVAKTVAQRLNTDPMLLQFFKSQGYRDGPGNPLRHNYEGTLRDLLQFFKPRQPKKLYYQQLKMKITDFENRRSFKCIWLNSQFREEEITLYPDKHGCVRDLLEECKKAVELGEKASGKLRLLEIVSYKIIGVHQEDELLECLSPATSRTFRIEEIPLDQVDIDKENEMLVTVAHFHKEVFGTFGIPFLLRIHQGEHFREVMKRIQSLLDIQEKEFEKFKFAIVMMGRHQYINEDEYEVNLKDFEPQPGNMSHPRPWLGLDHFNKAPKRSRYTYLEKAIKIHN

Row | Molecule | IC50 [1] | further results
1 | Cc1cc(Cl)cc(-c2ccnc3cc(CO)sc23)c1O[C@@H]1CNC[C@H]1C [Example 55, (7-(5-Chloro-3-methyl-2-(((3S,4R)-4-methylpyrrolidin-3-yl)oxy)phenyl)thieno[3,2-b]pyridin-2-yl)methanol] | 10 to 30 µM | 
2 | Cc1cc(Cl)cc(-c2ccnc3cc(CCOC4=NS(=O)(=O)c5ccccc54)sc23)c1O[C@@H]1CNC[C@@H]1F [Example 140, 3-(2-(7-(5-Chloro-2-(((3R,4S)-4-fluoropyrrolidin-3-yl)oxy)-3-methylphenyl)thieno[3,2-b]pyridin-2-yl)ethoxy)benzo[d]isothiazole 1,1-dioxide] | 10 to 30 µM | 
3 | Cc1cc(Cl)cc(-c2ccnc3cc(Cn4c(=O)ccn(CC(F)(F)F)c4=O)sc23)c1OCC1COCCN1 (stereo not shown) [Example 646, 3-[[7-[5-chloro-3-methyl-2-(morpholin-3-ylmethoxy)phenyl]thieno[3,2-b]pyridin-2-yl]methyl]-1-(2,2,2-trifluoroethyl)pyrimidine-2,4-dione; 2,2,2-trifluoroacetic acid] |  | IC50 [2]: < 1 µM
4 | Cc1cc(Cl)cc(-c2ncnc3cc(Cn4c(=O)ccn(CC(F)(F)F)c4=O)sc23)c1O[C@@H]1CC[C@@H](N)C1 [Example 603, 3-[[4-[2-[(1R,3R)-3-aminocyclopentoxy]-5-chloro-3-methyl-phenyl]thieno[3,2-d]pyrimidin-6-yl]methyl]-1-(2,2,2-trifluoroethyl)pyrimidine-2,4-dione] |  | IC50 [2]: < 1 µM
5 | Cc1cc(Cl)cc(-c2ccnc3cc(Cn4c(=O)ccn(CC(F)(F)F)c4=O)sc23)c1OC1COC1 [Example 671, 3-[[7-[5-chloro-3-methyl-2-(oxetan-3-yloxy)phenyl]thieno[3,2-b]pyridin-2-yl]methyl]-1-(2,2,2-trifluoroethyl)pyrimidine-2,4-dione] |  | IC50 (30-minute incubation, read-out: Potency (USP7 IC50)): < 1 µM
6 | Cc1cc(Cl)cc(-c2ccnc3c(F)c(CO)sc23)c1O[C@@H]1CNC[C@@H]1F [Example 407, [7-[5-chloro-2-[(3R,4S)-4-fluoropyrrolidin-3-yl]oxy-3-methyl-phenyl]-3-fluoro-thieno[3,2-b]pyridin-2-yl]methanol] |  | IC50 [2]: < 1 µM
7 | Cc1cc(Cl)cc(-c2ccnc3cc(CN4C(=O)CCC4=O)sc23)c1OC1CC[C@H](C)NC1 (stereo partly drawn) [Example 462, 1-[[7-[5-chloro-3-methyl-2-[[(6S)-6-methyl-3-piperidyl]oxy]phenyl]thieno[3,2-b]pyridin-2-yl]methyl]pyrrolidine-2,5-dione; 2,2,2-trifluoroacetic acid] |  | IC50 [2]: < 1 µM
8 | Cc1cc(Cl)cc(-c2ncnc3cc(CN4C(=O)C(C)C(C)C4=O)sc23)c1O[C@@H]1CNC[C@@H]1F (stereo partly drawn) [Example 379, 1-[[4-[5-chloro-2-[(3R,4S)-4-fluoropyrrolidin-3-yl]oxy-3-methyl-phenyl]thieno[3,2-d]pyrimidin-6-yl]methyl]-3,4-dimethyl-pyrrolidine-2,5-dione; 2,2,2-trifluoroacetic acid] | < 1 µM | 
9 | Cc1cc(Cl)cc(-c2ccnc(CCCN3C(=O)CCC3=O)c2)c1OC1CCNCC1 [Example 410, 1-[3-[4-[5-chloro-3-methyl-2-(4-piperidyloxy)phenyl]-2-pyridyl]propyl]pyrrolidine-2,5-dione; 2,2,2-trifluoroacetic acid] |  | IC50 [2]: 1 to 10 µM
10 | Cc1cc(C#N)cc(-c2ccnc3cc(Cn4c(=O)ccn(C)c4=O)sc23)c1OC1CCNCC1 [Example 454, 3-methyl-5-[2-[(3-methyl-2,6-dioxo-pyrimidin-1-yl)methyl]thieno[3,2-b]pyridin-7-yl]-4-(4-piperidyloxy)benzonitrile] |  | IC50 [2]: < 1 µM
11 | CCC(O)c1cc2nccc(-c3cc(C#N)cc(C)c3OCC3(C#N)CNC3)c2s1 (stereo not shown) [Example 10, 3-((4-Cyano-2-(2-(1-hydroxypropyl)thieno[3,2-b]pyridin-7-yl)-6-methylphenoxy)methyl)azetidine-3-carbonitrile] | < 1 µM | 
12 | Cc1cc(Cl)cc(-c2ccnc3cc(CN4C(=O)CN(C)C4=O)sc23)c1OCC1(C)CNC1 [Example 25, 3-((7-(5-Chloro-3-methyl-2-((3-methylazetidin-3-yl)methoxy)phenyl)thieno[3,2-b]pyridin-2-yl)methyl)-1-methylimidazolidine-2,4-dione] | < 1 µM | 
13 | Cc1cc(Cl)cc(-c2ccnc3cc(CN4C(=O)CCC4=O)sc23)c1OC1CNCC1(C)C (stereo not shown) [Example 345, 1-[[7-[5-chloro-2-(4,4-dimethylpyrrolidin-3-yl)oxy-3-methyl-phenyl]thieno[3,2-b]pyridin-2-yl]methyl]pyrrolidine-2,5-dione] | < 1 µM | 
14 | Cc1cc(Cl)cc(-c2ccnc3cc(Cn4c(=O)c(C)cn(CC(F)(F)F)c4=O)sc23)c1O[C@H]1CCCNC1 [Example 557, 3-[[7-[5-chloro-3-methyl-2-[[(3S)-3-piperidyl]oxy]phenyl]thieno[3,2-b]pyridin-2-yl]methyl]-5-methyl-1-(2,2,2-trifluoroethyl)pyrimidine-2,4-dione] |  | IC50 [2]: < 1 µM
15 | Cc1cc(Cl)cc(-c2ncnc3cc(CN4C(=O)c5ccccc5C4=O)sc23)c1O[C@@H]1CNC[C@@H]1F [Example 149, 2-((4-(5-Chloro-2-(((3R,4S)-4-fluoropyrrolidin-3-yl)oxy)-3-methylphenyl)thieno[3,2-d]pyrimidin-6-yl)methyl)isoindoline-1,3-dione] | < 1 µM | 
16 | CCN1CC[C@@H](Oc2c(C)cc(Cl)cc2-c2ccnc3cc(CN4C(=O)CCC4=O)sc23)[C@@H](C)C1 [Example 307, 1-[[7-[5-chloro-2-[[(3S,4R)-1-ethyl-3-methyl-4-piperidyl]oxy]-3-methyl-phenyl]thieno[3,2-b]pyridin-2-yl]methyl]pyrrolidine-2,5-dione] | < 1 µM | 
17 | 1-(7-(2-((3-Azabicyclo[3.1.0]hexan-6-yl)methoxy)-5-chloro-3-methylphenyl)thieno[3,2-b]pyridin-2-yl)propan-1-ol [Example 88] | 10 to 30 µM | 
18 | Cc1cc(Cl)cc(-c2ccnc3cc(Cn4c(=O)ccn(CC(F)(F)F)c4=O)sc23)c1OC1CNC[C@@]1(C)F (stereo partly drawn) [Example 406, 3-[[7-[5-chloro-2-[(4R)-4-fluoro-4-methyl-pyrrolidin-3-yl]oxy-3-methyl-phenyl]thieno[3,2-b]pyridin-2-yl]methyl]-1-(2,2,2-trifluoroethyl)pyrimidine-2,4-dione; 2,2,2-trifluoroacetic acid] |  | IC50 [2]: < 1 µM

Second part, led by results:

Row | IC50 [1] | Molecule | further results
19 | < 1 µM | Cn1nc2c(c1C1Cc3cc(Cl)cc(-c4ccnc5cc(CN6C(=O)C7C(C6=O)C7(C)C)sc45)c3O1)CNCC2 [Example 387, 3-[[7-[(2R)-5-chloro-2-(2-methyl-4,5,6,7-tetrahydropyraozlo[4,3-c]pyridin-3-yl)-2,3-dihydrobenzofuran-7-yl]thieno[3,2-b]pyridin-2-yl]methyl]-6,6-dimethyl-3-azabicyclo[3.1.0]hexane-2,4-dione dihydrochloride] | 
20 | < 1 µM | Cc1cc(Cl)cc(-c2ncnc3cc(CN4C(=O)C5C(C4=O)C5(C)C)sc23)c1O[C@@H]1C[C@H]2CN[C@@H]1C2 (stereo partly drawn) [Example 354, 3-[[4-[2-[[(1S,4R,5R)-3-azabicyclo[2.2.1]heptan-5-yl]oxy]-5-chloro-3-methyl-phenyl]thieno[3,2-d]pyrimidin-6-yl]methyl]-6,6-dimethyl-3-azabicyclo[3.1.0]hexane-2,4-dione dihydrochloride] | 
21 | < 1 µM | Cc1cc(Cl)cc(-c2ncnc3cc(CN4C(=O)CSC4=O)sc23)c1O[C@@H]1CNC[C@@H]1F [Example 129, 3-((4-(5-Chloro-2-(((3R,4S)-4-fluoropyrrolidin-3-yl)oxy)-3-methylphenyl)thieno[3,2-d]pyrimidin-6-yl)methyl)thiazolidine-2,4-dione] | 
22 | < 1 µM | Cc1cc(Cl)cc(-c2ccnc3cc(CN4C(=O)CCC4=O)sc23)c1O[C@@H]1CCNC[C@@H]1C [Example 303, 1-[[7-[5-chloro-3-methyl-2-[[(3S,4R)-3-methyl-4-piperidyl]oxy]phenyl]thieno[3,2-b]pyridin-2-yl]methyl]pyrrolidine-2,5-dione] | 
23 | < 1 µM | Cc1cc(Cl)cc(-c2ccnc3cc(CN4C(=O)CCC4=O)sc23)c1OC1CCNCC1 [Example 210, 1-((7-(5-Chloro-3-methyl-2-(piperidin-4-yloxy)phenyl)thieno[3,2-b]pyridin-2-yl)methyl)pyrrolidine-2,5-dione] | 
24 | < 1 µM | Cc1cc(Cl)cc(-c2ccnc3cc(CN4C(=O)CCC4=O)sc23)c1O[C@@H]1CNC[C@H]1F [Example 104, 1-((7-(5-Chloro-2-(((3R,4R)-4-fluoropyrrolidin-3-yl)oxy)-3-methylphenyl)thieno[3,2-b]pyridin-2-yl)methyl)pyrrolidine-2,5-dione] | 
25 | < 1 µM | Cc1cc(Cl)cc(-c2ccnc3cc(CN4C(=O)CCC4=O)sc23)c1O[C@@H]1CCN(C)C[C@@H]1C [Example 308, 1-[[7-[5-chloro-2-[[(3S,4R)-1,3-dimethyl-4-piperidyl]oxy]-3-methyl-phenyl]thieno[3,2-b]pyridin-2-yl]methyl]pyrrolidine-2,5-dione] | 
26 | 1 to 10 µM | Cc1cc(C#N)cc(-c2ccnc3cc(CO)sc23)c1OCC1(C)CNC1 [Example 43, 3-(2-(Hydroxymethyl)thieno[3,2-b]pyridin-7-yl)-5-methyl-4-((3-methylazetidin-3-yl)methoxy)benzonitrile] | 
27 | 1 to 10 µM | CCC(O)c1cc2nccc(-c3cc(Cl)cc(C)c3O[C@H]3CCCNC3)c2s1 (stereo partly drawn) [Example 164, 1-(7-(5-Chloro-3-methyl-2-(((S)-piperidin-3-yl)oxy)phenyl)thieno[3,2-b]pyridin-2-yl)propan-1-ol] | 
28 | < 1 µM | Cc1cc(Cl)cc(-c2ccnc3cc(CN4C(=O)CCC4=O)sc23)c1O[C@@H]1CN(C)C[C@@H]1F [Example 124, 1-((7-(5-Chloro-2-(((3R,4S)-4-fluoro-1-methylpyrrolidin-3-yl)oxy)-3-methylphenyl)thieno[3,2-b]pyridin-2-yl)methyl)pyrrolidine-2,5-dione] | 
